# Read-outs that look alike come from different tables or passages of the source.
# Experiments:
# HepG2 2.2.15 cells [1] = conditions: 5 μg oligo A, 4 h; for cellular delivery compared with TMP: 0-300 μg porphyrin
# Procedure: HepG2 2.2.15 cells were set up in 96 well plates as above. […] Complexes were added to the cultures and incubated at 37° C. for 4 h. The monolayers were washed three times with PBS and cells were lysed and counted as previously described.
# oligo A [2] = assay: Carboxymethyl (CM) ion exchange column binding of labelled oligo to cationic porphyrin; conditions: for porphyrin required for complete binding (saturation) of 60 μg oligo: 60 μg oligo A, 150 mM NaCl, 30 min room temperature, column binding assay
# oligo A [3] = conditions: 2.4 μg TMP, 150 mM NaCl
# Source text: The interaction of nucleic acids with water soluble porphyrins can easily be followed by measuring the absorbance spectrum of the porphyrin in the range 350-450 nm. Porphyrins have a characteristic Soret peak in this wavelength range. […] Spectra were taken over the range 300-500 nm and the wavelength of the Soret peak plotted against the mass of EGS.
# HepG2 2.2.15 cells [4] = assay: Delivery of TMP-complexed oligo to hepatoma cells in culture (cell-associated radioactivity); format: cell-based, human
# Procedure: The complexed oligo was delivered to the cell cultures (6 replicates per variable), samples were removed for measurement of delivered radioactivity cpm and the cultures were returned to a 37° C. incubator for 4 h. Cultures were washed three times with 100 μl PBS and cells were lysed with SDS lysis buffer for extraction of nucleic acids (0.5% SDS, 10 mM Tris HCl pH 7.4, 10 mM EDTA, 10 mM NaCl, […] proteinase K). Lysates were counted to determine cell-associated radioactivity and nucleic acids were extracted from the lysate by phenol-chloroform treatment and ethanol precipitation.
# hepatoma cells = assay: Timecourse of binding/uptake of TMP-delivered oligo to hepatoma cells; format: cell-based, human; conditions: 30 μg TMP and 10 μg oligo A
# Procedure: A timecourse experiment was carried out to determine the kinetics of binding/uptake of TMP-delivered oligonucleotides to hepatoma cells. […] A control timecourse was prepared without a delivery vehicle. Nucleic acids were recovered from one set of wells and were purified and analysed as described above.
# HepG2 2.2.15 cells [5] = assay: Fluorescence microscopy of delivered fluorescent oligo; format: cell-based, human; conditions: 100 μg fluorescent oligo, with 100 μg TMP or free, 1.5 h and 4 h
# Procedure: A 30 mer oligo containing a 5′ fluorescein isothiocyanate molecule was synthesised, oligo C. Sterile glass coverslips were placed into the wells of 6-well plates and HepG2 2.2.15 cells were seeded into the wells at 5×10^4 cells/well. […] After 1.5 h and 4 h the coverslips were removed from the wells, dipped five times in PBS to remove excess oligo and were fixed in 4% formaldehyde in PBS. The coverslips were mounted in Slowfade (Molecular Probes, Inc.), and viewed on a Nikon Diaphot fluorescence microscope.
# HepG2 2.2.15 cells [6] = assay: Influence of serum on TMP delivery of EGS; format: cell-based, human; conditions: 30 μg TMP with 5 μg oligo A; 0, 4% or 10% serum; 4 h and 24 h
# Procedure: Ninety-six well plates were set up as described above and allowed to grow until 80% confluence. Six replicate wells for each variable were washed twice with PBS. OPTI MEM (0 serum), 4% FCS in RPMI or 10% FCS in RPMI was added to the appropriate wells.
# Oligo A was radiolabelled as above. These complexes were added to the wells (in replicates of 6) and after 4 h and 24 h the monolayers were washed 3 times with PBS. Cells were lysed as above and radioactivity counted.
# [7] = 100 or 200 μg TMP with 100 μg oligo
# Procedure: An internally-labelled Oligo A was prepared by kinasing a component oligo with ^33P ATP and ligating this shorter oligo to another short component cold oligo to form the full-length version. […] After 2 h and 24 h the mice were killed by cervical dislocation, weighed and their livers removed. Livers were weighed, homogenized and a small sample counted by liquid scintillation counting.
# [8] = 200 μg oligo A with 100 μg TMP
# Procedure: After 8 h and 24 h mice were sacrificed and their livers quickly immersed in OCT medium (Tissue-Tek) and frozen in liquid N2. Thin sections were cut and sections were mounted on glass slides. Localisation of EGS in the liver section was determined by hybridisation of a ^33P-labelled antisense oligonucleotide complementary to the EGS sequence, and overlaying with a photographic emulsion. Background hybridisation was determined using a ^33P-labelled oligo with the same sequence as the EGS.
# HBV = assay: Anti HBV activity in cell culture (extracellular HBV DNA by dot-blot); format: cell-based, Hepatitis B virus; conditions: TMP concentration corresponding to 100 nM EGS
# Procedure: (§1) The human hepatoma cell line HepG2 2.2.15 containing four copies of the HBV genome was used in this study. Cells were plated out (2×10^4/well) into 96 well plates and left for 5 days until confluent. […] The various dilutions were added to the cell monolayers (6 replicates per concentration). Daily treatments were carried out for 5 days changing the medium each day. After the fifth day cell culture supernatant was removed and assayed for extracellular HBV DNA levels by dot-blot using the method of Korba B. E. and Gerin J. L. (Use of a standardized cell culture assay to assess activities of nucleoside analogs against Hepatitis B virus replication. (1992) Antiviral Research 19, 55-70).
# 9.5 kbp plasmid = conditions: 20 μg 9.5 kbp plasmid, 500 μg TMP
# HepG2 2.2.15 = conditions: TMP concentration; 700 nM TMP: 100 nM EGS; daily treatments for 5 days
# Procedure: as §1
molecule,measurement,setting,value
"C[N+](C)(C)c1ccc(-c2c3nc(c(-c4ccc([N+](C)(C)C)cc4)c4ccc([nH]4)c(-c4ccc([N+](C)(C)C)cc4)c4nc(c(-c5ccc([N+](C)(C)C)cc5)c5ccc2[nH]5)C=C4)C=C3)cc1 [TMA, meso tetra(trimethyl anilinium)porphine]",cellular delivery compared with TMP,HepG2 2.2.15 cells [1],never as great as the TMP analogues
same,porphyrin amount giving maximal nucleic acid uptake,HepG2 2.2.15 cells [1],11 µg
same,porphyrin required for complete binding (saturation) of 60 μg oligo,oligo A [2],approximately 100 μg
"C[n+]1ccc(-c2c3nc(c(-c4cc[n+](C)cc4)c4ccc([nH]4)c(-c4cc[n+](C)cc4)c4nc(c(-c5cc[n+](C)cc5)c5ccc2[nH]5)C=C4)C=C3)cc1.Cc1ccc(S(=O)(=O)[O-])cc1.Cc1ccc(S(=O)(=O)[O-])cc1.Cc1ccc(S(=O)(=O)[O-])cc1.Cc1ccc(S(=O)(=O)[O-])cc1 [TMP, Meso-tetra(N-methyl-4 pyridyl)porphine Tetra Tosylate]",mass of oligo at saturation (Soret peak reached 440 nm),oligo A [3],approximately 3 μg
same,oligo delivered,"HepG2 2.2.15 cells [4]; 1 μg delivered dose of oligo, 4 h",0.5 µg
same,oligo delivered,"HepG2 2.2.15 cells [4]; 5 μg delivered dose of oligo, 4 h",2.8 µg
same,oligo delivered,"HepG2 2.2.15 cells [4]; 10 μg delivered dose of oligo, 4 h",4.8 µg
same,TMP amount at saturation of binding or uptake,"HepG2 2.2.15 cells [4]; 1, 5 or 10 μg oligo A, 4 h",30 µg
same,maximum oligo cell associated,HepG2 2.2.15 cells [4]; 3×10^4 cells,4 to 5 µg
same,added dose cell-associated,"HepG2 2.2.15 cells [4]; all oligo doses, 4 h",Approximately 50%
same,oligo cell-associated,hepatoma cells; 8 h timepoint,greater than 75%
same,change in cell-associated material after 24 h,hepatoma cells; 24 h,reduction in the material cell-associated
same,intracellular location of fluorescence,HepG2 2.2.15 cells [5],All nuclei of the cells in the TMP-delivered fluorescent oligo cultures appeared brightly fluorescent
same,material cell-associated,HepG2 2.2.15 cells [6],50-70%
same,persistence of delivered oligo in the liver,[7],persisted for 24 h
same,tolerability in mice,[7]; tail vein,well tolerated
same,hybridisation signal in liver after 24 h,[8]; 24 h,level of signal is reduced after 24 h
same,intrahepatic distribution of EGS,"[8]; tail vein, mice",substantial EGS present in all hepatocytes
same,antiviral activity of TMP,HBV,highly antiviral
same,plasmid bound to TMP,9.5 kbp plasmid,5 µg
same,hepatic EGS levels over time,100 μg EGS with 20 μg TMP per mouse (lower TMP dose),declined slightly over time
same,hepatic EGS levels over time,100 μg EGS with 100 μg TMP per mouse (higher TMP dose),gradually increased
same,EGS level in kidney over time,"100 μg EGS with 100 or 20 μg TMP per mouse, 2-72 h",rapid initial peak in the kidney which declined over 72 h
same,"EGS levels in spleen, fat and serum","100 μg EGS with TMP, mice",negligible
same,enhancement with the higher TMP level,"100 versus 20 μg TMP, same amount of EGS",two-fold
same,liver toxicity,"mice, 100 μg EGS with 100 or 20 μg TMP",No liver toxicity was detected
same,concentration showing no toxicity,HepG2 2.2.15,less than 700 nM
same,porphyrin required for complete binding (saturation) of 60 μg oligo,oligo A [2],60 µg
same,stoichiometry of oligo:TMP at saturation,"oligo A [2]; 30 mer oligo, charge neutralisation",4 molecules of oligo interact with 29 molecules of TMP
Fe(III)-tetra-(N-methyl-4-pyridyl)-porphyrin chloride [Fe TMP],cellular delivery compared with TMP,HepG2 2.2.15 cells [1],does not affect cellular delivery by TMP up to a level of 30 μg
same,porphyrin amount giving maximal nucleic acid uptake,HepG2 2.2.15 cells [1],30 µg
same,influence of chelated Fe atom on nucleic acid binding,oligo A [2]; compared with TMP,behaved no differently than TMP alone

# Source: US6620805B1, “Delivery of nucleic acids by porphyrins” (Yale University, priority 1996, dated 2003)
